Tested on: HepG2 TRIB1 mRNA expression, RT-qPCR, 6 h
Assay: TRIB1 mRNA induction under cholesterol depletion, late-stage follow-up, mechanism study for Trib1 inducer project, cell-based, HepG2, RT-PCR, cherry-pick (AID 1053152)
Settings: active compounds read high

For `CN1C(=O)c2cc(NC(=O)c3ccc(C(F)(F)F)cc3)ccc2OC[C@@H]2O[C@H](CC(=O)NC3Cc4ccccc4C3)CC[C@@H]21`, the fold induction was 2.5.
